{"source": "patent US9745246B2", "about": "“Method for preparing a salt of acetylsalicylic acid and a basic amino acid” (UNITHER PHARMACEUTICALS, priority 2014, dated 2017)", "key": {"[1]": {"experiment": "Stability study, Experiment 1: dry product stored at 5° C. under inert atmosphere in the dark for 3 months", "format": "physicochemical", "settings": "storage 5° C.; for Stability over time: 3 months", "protocol": "(§1) The analysis by HPLC is carried out according to the method of the European Pharmacopeia 2.2.29, as indicated below.\n(§2) Residual moisture content: halogen loss on desiccation in a desiccator 5 g/90° C./20 min.\n(§3) Water content: according to European Pharmacopeia 2.5.12, titration carried out by Karl Fisher titration on 1 g of ASL.\n(§4) according to European Pharmacopeia 2.2.3, a solution is reconstituted by dissolving 1 g of ASL in 10 ml of water free of carbon dioxide, with stirring for 30 s. Its appearance is evaluated and its pH is measured.\n(§5) Content of each unknown impurity: by HPLC assay, according to the operating protocol described above. The content of each impurity is determined by means of the following equation: […]\nA study of stability of the product obtained in example 1 is carried out by storing the dry product under an inert atmosphere and in the dark, at a temperature of 5° C., for a period of 3 months.\nAt times T=0, T=1 month and T=3 months, a sample of product is taken and subjected to all the tests described in example 2.\nBy way of comparative example, the same experiment is carried out on a product obtained by means of the preparation process of the prior art described in document WO 2011/039432, providing in particular a molar deficiency in DL-lysine (more specifically, with an acetylsalicylic acid/DL lysine molar ratio equal to 1/0.89)."}, "[2]": {"experiment": "Stability study, Experiment 2: dry product (new synthesis batch) stored at 5° C. under inert atmosphere in the dark for 6 months", "format": "physicochemical", "parameters": "key to Appearance of the powder / Appearance of the reconstituted solution: C = complies", "settings": "storage 5° C.", "protocol": "as §1, §2, §3, §4, §5\nA study of stability of the product obtained in example 1 (new synthesis batch) is carried out by storing the dry product under an inert atmosphere and in the dark, at a temperature of 5° C., for a period of 6 months.\nAt times T=0, T=1 month, T=3 months and T=6 months, a sample of product is taken and subjected to all the tests described in example 2."}, "[3]": {"settings": "time 0 months, listed as Method in accordance with the invention"}, "[4]": {"settings": "time 1 month, listed as Method in accordance with the invention"}, "[5]": {"settings": "time 3 months, listed as Method in accordance with the invention"}}}
{"substance": "DL-lysine acetylsalicylate [ASL]", "values": [{"measurement": "Stability over time", "setting": "[1]; listed as product obtained by means of the method in accordance with the invention of exam", "result": "remains stable over time"}, {"measurement": "Impurities (%): Other unknown impurity", "setting": "[1]; time 0 months", "result": 0.02, "unit": "%"}, {"measurement": "Impurities (%): Sum of the impurities", "setting": "[1]; time 0 months", "result": 0.15, "unit": "%"}, {"measurement": "Water content (%)", "setting": "[1]; time 0 months", "result": 0.4, "unit": "%"}, {"measurement": "HPLC content of acetylsalicylic acid (%)", "setting": "[1]; [3]", "result": 98.3, "unit": "%"}, {"measurement": "Impurities (%): Salicylic acid", "setting": "[1]; [3]", "result": 0.13, "unit": "%"}, {"measurement": "Residual moisture content (%)", "setting": "[1]; [3]", "result": 0.4, "unit": "%"}, {"measurement": "pH of the reconstituted solution", "setting": "[1]; [3]", "result": 5.9}, {"measurement": "Water content (%)", "setting": "[1]; time 1 month", "result": 0.5, "unit": "%"}, {"measurement": "HPLC content of acetylsalicylic acid (%)", "setting": "[1]; [4]", "result": 98.5, "unit": "%"}, {"measurement": "Impurities (%): Other unknown impurity", "setting": "[1]; [4]", "result": 0.02, "unit": "%"}, {"measurement": "Impurities (%): Salicylic acid", "setting": "[1]; [4]", "result": 0.17, "unit": "%"}, {"measurement": "Impurities (%): Sum of the impurities", "setting": "[1]; [4]", "result": 0.22, "unit": "%"}, {"measurement": "Residual moisture content (%)", "setting": "[1]; [4]", "result": 0.6, "unit": "%"}, {"measurement": "pH of the reconstituted solution", "setting": "[1]; [4]", "result": 5.6}, {"measurement": "Water content (%)", "setting": "[1]; time 3 months", "result": 0.3, "unit": "%"}, {"measurement": "HPLC content of acetylsalicylic acid (%)", "setting": "[1]; [5]", "result": 98.8, "unit": "%"}, {"measurement": "Impurities (%): Other unknown impurity", "setting": "[1]; [5]", "result": 0.02, "unit": "%"}, {"measurement": "Impurities (%): Salicylic acid", "setting": "[1]; [5]", "result": 0.21, "unit": "%"}, {"measurement": "Impurities (%): Sum of the impurities", "setting": "[1]; [5]", "result": 0.25, "unit": "%"}, {"measurement": "Residual moisture content (%)", "setting": "[1]; [5]", "result": 0.6, "unit": "%"}, {"measurement": "pH of the reconstituted solution", "setting": "[1]; [5]", "result": 5.5}, {"measurement": "Stability over time", "setting": "[2]; 6 months", "result": "remains stable over time"}, {"measurement": "Appearance of the powder", "setting": "[2]; time 0 months", "result": "C"}, {"measurement": "Appearance of the reconstituted solution", "setting": "[2]; time 0 months", "result": "C"}, {"measurement": "HPLC content of acetylsalicylic acid (%)", "setting": "[2]; time 0 months", "result": 97.5, "unit": "%"}, {"measurement": "Impurities (%): Other unknown impurity", "setting": "[2]; time 0 months", "result": 0.03, "unit": "%"}, {"measurement": "Impurities (%): Salicylic acid", "setting": "[2]; time 0 months", "result": 0.28, "unit": "%"}, {"measurement": "Impurities (%): Sum of the impurities", "setting": "[2]; time 0 months", "result": 0.32, "unit": "%"}, {"measurement": "Residual moisture content (%)", "setting": "[2]; time 0 months", "result": 0.7, "unit": "%"}, {"measurement": "Water content (%)", "setting": "[2]; time 0 months", "result": 0.4, "unit": "%"}, {"measurement": "pH of the reconstituted solution", "setting": "[2]; time 0 months", "result": 5.7}, {"measurement": "Appearance of the powder", "setting": "[2]; time 1 month", "result": "C"}, {"measurement": "Appearance of the reconstituted solution", "setting": "[2]; time 1 month", "result": "C"}, {"measurement": "HPLC content of acetylsalicylic acid (%)", "setting": "[2]; time 1 month", "result": 97.5, "unit": "%"}, {"measurement": "Impurities (%): Other unknown impurity", "setting": "[2]; time 1 month", "result": 0.03, "unit": "%"}, {"measurement": "Impurities (%): Salicylic acid", "setting": "[2]; time 1 month", "result": 0.28, "unit": "%"}, {"measurement": "Impurities (%): Sum of the impurities", "setting": "[2]; time 1 month", "result": 0.33, "unit": "%"}, {"measurement": "Residual moisture content (%)", "setting": "[2]; time 1 month", "result": 0.5, "unit": "%"}, {"measurement": "Water content (%)", "setting": "[2]; time 1 month", "result": 0.3, "unit": "%"}, {"measurement": "pH of the reconstituted solution", "setting": "[2]; time 1 month", "result": 5.8}, {"measurement": "Appearance of the powder", "setting": "[2]; time 3 months", "result": "C"}, {"measurement": "Appearance of the reconstituted solution", "setting": "[2]; time 3 months", "result": "C"}, {"measurement": "HPLC content of acetylsalicylic acid (%)", "setting": "[2]; time 3 months", "result": 98.1, "unit": "%"}, {"measurement": "Impurities (%): Other unknown impurity", "setting": "[2]; time 3 months", "result": 0.03, "unit": "%"}, {"measurement": "Impurities (%): Salicylic acid", "setting": "[2]; time 3 months", "result": 0.29, "unit": "%"}, {"measurement": "Impurities (%): Sum of the impurities", "setting": "[2]; time 3 months", "result": 0.33, "unit": "%"}, {"measurement": "Residual moisture content (%)", "setting": "[2]; time 3 months", "result": 0.6, "unit": "%"}, {"measurement": "Water content (%)", "setting": "[2]; time 3 months", "result": 0.3, "unit": "%"}, {"measurement": "pH of the reconstituted solution", "setting": "[2]; time 3 months", "result": 5.4}, {"measurement": "Appearance of the powder", "setting": "[2]; time 6 months", "result": "C"}, {"measurement": "Appearance of the reconstituted solution", "setting": "[2]; time 6 months", "result": "C"}, {"measurement": "HPLC content of acetylsalicylic acid (%)", "setting": "[2]; time 6 months", "result": 97.5, "unit": "%"}, {"measurement": "Impurities (%): Other unknown impurity", "setting": "[2]; time 6 months", "result": 0.03, "unit": "%"}, {"measurement": "Impurities (%): Salicylic acid", "setting": "[2]; time 6 months", "result": 0.30, "unit": "%"}, {"measurement": "Impurities (%): Sum of the impurities", "setting": "[2]; time 6 months", "result": 0.34, "unit": "%"}, {"measurement": "Residual moisture content (%)", "setting": "[2]; time 6 months", "result": 0.6, "unit": "%"}, {"measurement": "Water content (%)", "setting": "[2]; time 6 months", "result": 0.3, "unit": "%"}, {"measurement": "pH of the reconstituted solution", "setting": "[2]; time 6 months", "result": 6.3}]}
{"substance": "DL-lysine acetylsalicylate [Process of WO 2011/039432, reference compound]", "values": [{"measurement": "Stability over time", "setting": "[1]; listed as product obtained by means of a process of the prior art", "result": "much less stability over time"}, {"measurement": "HPLC content of acetylsalicylic acid (%)", "setting": "[1]; time 0 months", "result": 93.6, "unit": "%"}, {"measurement": "Impurities (%): Salicylic acid", "setting": "[1]; time 0 months", "result": 1.9, "unit": "%"}, {"measurement": "Residual moisture content (%)", "setting": "[1]; time 0 months", "result": 0.72, "unit": "%"}, {"measurement": "pH of the reconstituted solution", "setting": "[1]; time 0 months", "result": 5.2}, {"measurement": "HPLC content of acetylsalicylic acid (%)", "setting": "[1]; time 1 month", "result": 90.0, "unit": "%"}, {"measurement": "Impurities (%): Other unknown impurity", "setting": "[1]; time 1 month", "result": 0.026, "unit": "%"}, {"measurement": "Impurities (%): Salicylic acid", "setting": "[1]; time 1 month", "result": 1.9, "unit": "%"}, {"measurement": "Impurities (%): Sum of the impurities", "setting": "[1]; time 1 month", "result": 0.09, "unit": "%"}, {"measurement": "Residual moisture content (%)", "setting": "[1]; time 1 month", "result": 0.61, "unit": "%"}, {"measurement": "pH of the reconstituted solution", "setting": "[1]; time 1 month", "result": 5.2}, {"measurement": "HPLC content of acetylsalicylic acid (%)", "setting": "[1]; time 3 months", "result": 91.6, "unit": "%"}, {"measurement": "Impurities (%): Other unknown impurity", "setting": "[1]; time 3 months", "result": 0.027, "unit": "%"}, {"measurement": "Impurities (%): Salicylic acid", "setting": "[1]; time 3 months", "result": 2.0, "unit": "%"}, {"measurement": "Impurities (%): Sum of the impurities", "setting": "[1]; time 3 months", "result": 0.07, "unit": "%"}, {"measurement": "Residual moisture content (%)", "setting": "[1]; time 3 months", "result": 0.61, "unit": "%"}, {"measurement": "pH of the reconstituted solution", "setting": "[1]; time 3 months", "result": 5.1}]}
